TGI data for 20 molecules are collected here from PubChem BioAssay (NCI).

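96-well plates; 48 h exposure; 5 concentrations. Endpoints by linear interpolation between flanking doses. Not reached: highest tested concentration assigned. The concentration for full growth arrest is given as TGI.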

What all share (assay): DTP human tumour cell line panel, 48 h
The test system of test [1] is OVCAR-3 ovarian.
The subject of test [2] is SF-268 CNS.
Test [3] concerns SK-MEL-2 melanoma.
Test [4] concerns MCF7 breast.
Test [5] relates to UACC-257 melanoma.
In test [6] the test system is SNB-75 CNS.
The subject of test [7] is COLO 205 colon.
For test [8], the system named is ACHN renal.
Test [9] relates to DU-145 prostate.
In test [10] the test system is HT29 colon.
The subject of test [11] is K-562 leukemia.
For test [12], the system named is MDA-N.

For the molecule `Cc1[nH]c2ncn3[nH]c(=S)nc3c2c1Cc1ccccc1`, the TGI in test [1], in test [2], in test [3], in test [4], in test [5] and in test [6] was more than 100 µM each time. In addition, the TGI in test [7], in test [8], in test [9] and in [10] was more than 100 µM in each case.
As to `Cc1nc(C(N)=S)sc1C(=O)CC(=O)C(=O)Nc1ccc(Br)cc1`, the total growth inhibition concentration (TGI) in test [1], in test [2], in [3], in test [4], in [5] and in test [6] was more than 100 µM each time. In addition, the TGI in test [8], in test [11], in test [12] and in [10] was more than 100 µM each time.
Turning to `CC(C)CC(=O)CC(C)[C@]1(CCCOCc2ccccc2)C(=O)N2CCC3(C[C@@]24CCC[C@H]41)OCCO3` (some centres not stated), the TGI in [1], in [2], in test [3], in [4], in test [7] and in test [11] was more than 10 µM in each case. Further, the TGI – broadly, the concentration at which net growth stops – in test [12] was more than 10 µM.
As for `O=C(O)CCC(NC(=O)c1ccc(Oc2nc3ccccc3nc2C(=O)O)cc1)C(=O)O` (configuration not stated), the TGI in test [1], in [2], in test [3], in [5], in [6] and in [7] was more than 100 µM in each case. The total growth inhibition concentration (TGI) in [8], in test [11], in test [9] and in [10] was more than 100 µM each time.
In the case of `CC(=O)C1C(=O)C(=O)N(c2ccc([N+](=O)[O-])cc2[N+](=O)[O-])C1=O` (configuration not stated), the concentration for total growth inhibition (TGI) in test [1], in test [2], in test [3], in test [4], in test [5] and in test [6] was more than 100 µM in each case. In addition, the TGI in [7], in [8], in test [9] and in test [10] was more than 100 µM throughout.
Consider `CC(C(=O)NCNC(=O)c1ccccc1)C(=O)Nc1ccccc1` (configuration not stated), for which the TGI in test [2], in [3], in [4], in [5], in test [6] and in [7] was more than 100 µM in each case. Moreover, the total growth inhibition concentration (TGI) in test [8], in test [9], in test [12] and in test [10] was more than 100 µM each time.
As for `COc1c(Sc2c(SCSc3cnc4ccccc4c3Sc3cnc4ccccc4c3OC)cnc3ccccc23)cnc2ccccc12`, the TGI in test [1], in test [2], in test [3], in test [5], in test [6] and in test [7] was more than 100 µM throughout. Besides, the TGI in [8], in test [9], in [12] and in [10] was more than 100 µM each time.
Regarding `O=S(Cc1ccccc1)c1ccccc1Cn1cccc1` (configuration not stated), the TGI in test [1], in [2], in test [3], in [4], in test [5] and in test [6] was more than 100 µM in each case. Besides, the TGI in [7], in test [8], in test [11], in test [9] and in [10] was more than 100 µM throughout.
As for `CCOC(=O)C1CCCc2sc(N)c(C#N)c21` (configuration not stated), the TGI in [3], in test [4], in test [5], in [6], in test [7] and in test [8] was more than 100 µM each time. Besides, the TGI in test [11], in test [12] and in test [10] was more than 100 µM in each case.
In the case of `CCN(CC)CCCNc1ccc([N+](=O)[O-])c2nc3ccccc3c(N)c12`, the TGI is 8.75 µM in [1]; more than 10 µM in test [2]; 2.53 µM in [3]; 2.24 µM in test [4]; more than 10 µM in test [5]; 2.42 µM in [6]. For the same molecule, the TGI in test [11] is 2.35 µM; in test [9], more than 10 µM; in test [10], 1.81 µM.
For `Cc1cccc(N=Nc2c(C)nn(C(=O)CC(=O)Nc3ccc(Cl)cc3)c2C)c1`, the TGI in [1] was more than 100 µM; in [2], more than 100 µM; in test [3], more than 100 µM; in [4] it was more than 100 µM; in [5], more than 100 µM; in test [6], 95.9 µM. For the same molecule, the TGI in test [7], in test [8], in test [9], in test [12] and in test [10] was more than 100 µM each time.
`Fc1cc2nc3n(c2cc1F)C(c1c(F)cccc1F)SC3` (configuration not stated): the TGI in test [1], in [2], in test [3], in test [4], in [5] and in test [6] was more than 100 µM throughout. Also, the TGI in [7], in test [8], in test [9], in [12] and in test [10] was more than 100 µM in each case.
Turning to `COc1ccc2c(=O)c3ccoc3[nH]c2c1`, the TGI in [2], in [3], in test [4], in test [5], in [6] and in test [7] was more than 100 µM in each case. Also, the TGI in test [8], in [11], in test [9] and in test [10] was more than 100 µM throughout.
For the molecule `CN(C)c1ccc(N=C2N=C(Nc3ccccc3)C(=Nc3ccccc3)S2)cc1`, the total growth inhibition concentration (TGI) is more than 100 µM in test [1]; more than 100 µM in test [2]; more than 100 µM in [3]; more than 100 µM in test [4]; more than 100 µM in [5]; 81.4 µM in test [6]. For the same molecule, the TGI in test [7], in test [8], in test [9], in test [12] and in test [10] was more than 100 µM throughout.
Turning to `Cc1ccc(S(=O)(=O)C2=Cc3ccccc3C2(O)c2ccccc2)cc1` (configuration not stated), the TGI in test [2] is more than 100 µM; in test [3] it was 31.4 µM; in test [5], more than 10 µM; in test [6], more than 100 µM; in test [7] it was 62.6 µM; in [8], more than 100 µM. Besides, the TGI in test [11] was 76.5 µM; in test [9], more than 100 µM; in test [12], 48.2 µM; in test [10], 36.1 µM.
Turning to `O=c1[nH]c2nc3ccccc3c(=O)n2/c1=C/c1ccccc1`, the TGI in test [1] was more than 100 µM; in [2], more than 100 µM; in test [3], more than 100 µM; in test [4], more than 100 µM; in test [5] it was more than 100 µM; in [6], 99.4 µM. Besides, the TGI in test [7] was more than 100 µM; in test [8], more than 100 µM; in test [9], more than 100 µM; in [12] it was 78.5 µM; in test [10], 39.1 µM.
Consider `CCOC(=O)C(=[N+]=[N-])C(=O)CSC#N`, for which the TGI in [2] is more than 100 µM; in test [3] it was more than 100 µM; in [4], more than 100 µM; in test [5], more than 100 µM; in test [7] it was more than 100 µM; in test [8] it was 55.3 µM. In addition, the TGI in test [9], in test [12] and in test [10] was more than 100 µM in each case.
For `CCOC(=O)c1cc(=O)c2cccc3c2n1CCS3`, the TGI in test [1], in test [2], in test [3], in test [4], in test [5] and in test [6] was more than 100 µM throughout. Also, the TGI in test [7], in [8], in [9], in test [12] and in test [10] was more than 100 µM each time.
As to `CSc1nc(-c2ccccc2)[nH]c(=O)n1`, the TGI in test [1], in test [2], in test [3], in [4], in [5] and in test [7] was more than 100 µM in each case. Further, the TGI in test [8], in test [9] and in test [10] was more than 100 µM each time.
Turning to `N#CC(NNC(=O)Cc1ccccc1)c1ccc([N+](=O)[O-])cc1` (configuration not stated), the TGI in [2], in test [3], in test [5], in test [6], in test [7] and in test [8] was more than 100 µM each time. The TGI in [11] and in test [10] was more than 100 µM each time.
